# Columns and labels:
# [1] = tested on: lipase preparation AY “Amano” 30SD; test: Lipase-induced scent emission test, lipase preparation AY “Amano” 30SD; type: biochemical; conditions: GC/MS head space peak area of scent-emitting compound minus water control; 10 mg fragrance precursor + 1 g aqueous 1% lipase preparation solution
# Description: (§1) 10 mg of a fragrance precursor and 1 g of an aqueous 1% lipase preparation solution were put in a vial bottle and mixed and after hermetically sealing the bottle, the mixture was subjected to GC/MS analysis of the head space component to obtain a peak area of the scent-emitting compound. As a control, water was used in place of the aqueous 1% lipase preparation solution, and a peak area of the control was obtained by the same method. The scent emission amount was determined from the difference between the obtained peak area of the scent-emitting compound and the peak area of the control.
# (§2) (GC/MS Measurement Conditions)
# (§3) Measurement instrument: 7890GC/5975M (manufactured by Agilent Technologies) • Column: BC-WAX50 m×0.25 mm I.D. • Temperature rise: 70° C. to 220° C., 4° C./min • Split ratio: 60:1
# [2] = biological target: T1, lipase preparation Lipex 100 L (Thermomyces lanuginosus, UniProt O59952, N255R/T253R); test: Lipase-induced scent emission test, lipase preparation Lipex 100 L; type: biochemical; conditions: for Scent Emission Amount: GC/MS head space peak area of scent-emitting compound minus water control, 10 mg fragrance precursor + 1 g aqueous 1% lipase preparation solution; for Scent-Emitting Compound: compound released, GC/MS of head space
# T1 construct: purchased Novozymes Lipex 100 L
# Description: as §1, §2, §3
# [3] = tested on: Pseudomonas aeruginosa NBRC13275; test: Scent emission test by microorganism, Pseudomonas aeruginosa; type: cell-based; conditions: GC/MS head space peak area minus control culture; 10 mg fragrance precursor in 3 mL culture solution, 30° C., 20 hours
# Description: (§4) Culture of Staphylococcus aureus strain NBRC12732, Corynebacterium xerosis strain JCM1324, Pseudomonas aeruginosa strain NBRC13275, and Moraxella osloensis strain ATCC19976:
# (§5) After inoculating each of bacteria in Muller-Hinton liquid medium, shaking culture was performed at 30° C. for 20 hours, and 3 mL of the resulting preculture solution was transferred to a vial bottle. 10 mg of each of the fragrance precursors was mixed therewith and after hermetical sealing, shaking culture was further performed at 30° C. for 20 hours.
# (§6) A peak area of the scent-emitting compound was obtained by performing GC/MS analysis of the head space component included in the vial bottle containing 3 mL of a microorganism culture solution in which 10 mg of the fragrance precursor was mixed. A microorganism culture solution having not mixed therein the fragrance precursor was used as the control, and a peak area of the control was obtained by the same method. The scent emission amount was determined from the difference between the obtained peak area of the scent-emitting compound and the peak area of the control.
# (§7) Measurement instrument: 7890GC/5975MSD (manufactured by Agilent Technologies) • Column: BC-WAX 50 m×0.25 mm I.D. • Temperature rise: 70° C. to 220° C., 4° C./min • Split ratio: splitless
# [4] = tested on: Moraxella osloensis ATCC19976; test: Scent emission test by microorganism, Moraxella osloensis; type: cell-based; conditions: GC/MS head space peak area minus control culture; 10 mg fragrance precursor in 3 mL culture solution, 30° C., 20 hours
# Description: as §4, §5, §6, §7
# [5] = tested on: Propionibacterium acnes JCM6473; test: Scent emission test by microorganism, Propionibacterium acnes; type: cell-based; conditions: GC/MS head space peak area minus control culture; 10 mg fragrance precursor in 3 mL culture solution, static culture 28° C., 3 days
# Description: Culture of Propionibacterium acnes Strain JCM6473:
# (§8) After inoculating the bacterium in GAM bouillon liquid medium containing Hemin 0.5 ppm and Menadione 0.5 ppm, static culture was performed at 28° C. for 3 days under anaerobic conditions, and 3 mL of the resulting preculture solution was transferred to a vial bottle. 10 mg of each of the fragrance precursors was mixed therewith and after hermetical sealing, static culture was further performed at 28° C. for 3 days.
# as §6, §7
# [6] = tested on: Malassezia furfur NBRC0656; test: Scent emission test by microorganism, Malassezia furfur; type: cell-based; conditions: GC/MS head space peak area minus control culture; 10 mg fragrance precursor in 3 mL culture solution, static culture 28° C., 3 days
# Description: Culture of Malassezia furfur Strain NBRC0656:
# as §8, with “Sabouraud” for “GAM bouillon”, “0.1% Tween 80,” for “Hemin 0.5 ppm and Menadione 0.5 ppm,”, “of” for “of each of”, “precursor” for “precursors”
# as §6, §7
# [7] = tested on: Corynebacterium xerosis JCM1324; test: Scent emission test by microorganism, Corynebacterium xerosis; type: cell-based; conditions: GC/MS head space peak area minus control culture; 10 mg fragrance precursor in 3 mL culture solution, 30° C., 20 hours
# Description: as §4, §5, §6, §7
# [8] = tested on: Staphylococcus aureus NBRC12732; test: Scent emission test by microorganism, Staphylococcus aureus; type: cell-based; conditions: GC/MS head space peak area minus control culture; 10 mg fragrance precursor in 3 mL culture solution, 30° C., 20 hours
# Description: as §4, §5, §6, §7
# T1 sequence (O59952 23-291 T253R/N255R): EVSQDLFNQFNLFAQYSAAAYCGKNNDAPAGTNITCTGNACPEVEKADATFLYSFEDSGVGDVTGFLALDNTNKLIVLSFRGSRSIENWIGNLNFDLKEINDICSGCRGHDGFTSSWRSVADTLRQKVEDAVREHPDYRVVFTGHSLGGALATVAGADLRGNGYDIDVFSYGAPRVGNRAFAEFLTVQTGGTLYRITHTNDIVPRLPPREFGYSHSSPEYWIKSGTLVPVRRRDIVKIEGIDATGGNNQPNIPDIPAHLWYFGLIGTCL
compound,measurement,setting,value
"CCCC(CC[C@@H]1[C@@H](C)CCCC1(C)C)OC(=O)c1ccc(OC)cc1 (stereo partly drawn) [Example 3, 1-((R,6S)-2,2,6-trimethylcyclohexyl)-3-hexanyl Anisate]",Scent Emission Amount,[1],"40,373,157"
same,Scent Emission Amount,[2],"40,430,750"
"COc1cc(C=O)ccc1OC(=O)c1ccccc1 [Example 13, 4-formyl-2-methoxyphenyl Benzoate]",Scent Emission Amount,[2],"47,188,750"
same,Scent-Emitting Compound,[2],vanillin
O=C(OCCc1ccccc1)c1ccccc1 [phenylethyl benzoate],Scent Emission Amount,[1],"96,460,830"
"CC/C=C\CCOC(=O)c1ccccc1 [Example 11, (Z)-3-hexenyl Benzoate]",Scent Emission Amount,[1],"49,663,459"
CC(C)=CCCC(C)CCOC(=O)Cc1ccccc1 (stereo not drawn) [citronellyl phenylacetate],Scent Emission Amount,[3],"150,385,642"
same,Scent Emission Amount,[4],"500,940,481"
same,Scent Emission Amount,[5],"292,401,763"
same,Scent Emission Amount,[6],"369,118,269"
"COc1ccc(C(=O)OCC[C@@H](C)CC/C=C(\C)CCC=C(C)C)cc1 [Example 8, (S,E)-3,7,11-trimethyl-6,10-dodecadienyl Anisate]",Scent Emission Amount,[1],"23,338,647"
"C=CCc1ccc(OC(=O)c2ccccc2)c(OC)c1 [Example 12, 4-allyl-2-methoxyphenyl benzoate]",Scent Emission Amount,[2],"164,744,420"
same,Scent-Emitting Compound,[2],eugenol
CC(C)=CCC/C(C)=C/COC(=O)Cc1ccccc1 [geranyl phenylacetate],Scent Emission Amount,[1],"54,842,763"
same,Scent Emission Amount,[7],"39,033,900"
O=C(Cc1ccccc1)OCCc1ccccc1 [phenylethyl phenylacetate],Scent Emission Amount,[1],"50,855,859"
CC(C)=CCC/C(C)=C/COC(=O)c1ccccc1 [geranyl benzoate],Scent Emission Amount,[1],"78,461,812"
same,Scent Emission Amount,[8],"839,961,157"
same,Scent Emission Amount,[3],"117,161,311"
same,Scent Emission Amount,[5],"105,061,217"
same,Scent Emission Amount,[6],"121,633,184"
"CC(C)=CCC/C(C)=C/CC[C@H](C)CCOC(=O)c1ccccc1 [Example 7, (S,E)-3,7,11-trimethyl-6,10-dodecadienyl Benzoate]",Scent Emission Amount,[1],"88,986,381"
O=C(C=Cc1ccccc1)OCCc1ccccc1 [phenylethyl cinnamate],Scent Emission Amount,[1],"22,892,002"
same,Scent Emission Amount,[8],"144,750,281"
same,Scent Emission Amount,[3],"247,508,719"
same,Scent Emission Amount,[5],"112,497,882"
same,Scent Emission Amount,[6],"351,450,490"
O=C(C=Cc1ccccc1)OCC=Cc1ccccc1 [cinnamyl cinnamate],Scent Emission Amount,[1],"24,711,289"
"CC(C)[C@@H]1CC[C@@H](C)C[C@H]1OC(=O)c1ccccc1 [Example 6, (1R,2S,5R)-isopropyl-5-methylcyclohexyl benzoate]",Scent Emission Amount,[1],"82,023,336"
"CC(C)=CCC/C(C)=C/CC[C@H](C)CCOC(=O)/C=C/c1ccccc1 [Example 10, (S,E)-3,7,11-trimethyl-6,10-dodecadienyl Cinnamate]",Scent Emission Amount,[2],"19,967,420"
same,Scent-Emitting Compound,[2],dihydrofarnesol
"C=CCCCCCCCCOC(=O)c1ccccc1 [Example 14, 9-decenyl Benzoate]",Scent Emission Amount,[4],"86,274,718"
same,Scent Emission Amount,[5],"133,440,692"
same,Scent Emission Amount,[6],"304,030,021"
C=C(C)CCC[C@H](C)CCOC(=O)Cc1ccccc1 [rosinyl phenylacetate],Scent Emission Amount,[1],"56,492,946"
CC/C=C\CCOC(=O)c1ccccc1O [(Z)-3-hexenyl salicylate],Scent Emission Amount,[1],"16,933,990"
same,Scent Emission Amount,[8],"14,126,965"
"CC(C)=CCC[C@H](C)CCOC(=O)c1ccccc1 [Example 1, 3,7-dimethyl-6-octenyl benzoate]",Scent Emission Amount,[2],"28,098,876"
same,Scent-Emitting Compound,[2],citronellol

# Reference: patent publication US11802258B2, “Perfume precursor” (TAKASAGO INTERNATIONAL CORPORATION, priority 2017, dated 2023)
